The record followed here is PubChem BioAssay (NCI).

Among the test systems are UACC-62 melanoma; ACHN renal; NCI-H23 lung; U251 CNS; CCRF-CEM leukemia; RPMI-8226 leukemia; 786-0 renal; SK-OV-3 ovarian; SK-MEL-2 melanoma; SN12C renal.
Common to all, as to assay: growth of human tumour cells (NCI), 48 h

The structures appear in SMILES notation. Values joined by “and” are separate entries in the source; they are usually repeats but may differ in a detail not shown here. Identical values can stand only once.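 In this assay, cells in 96-well plates receive the compound at five concentrations for 48 hours. Endpoints are linearly interpolated between the surrounding concentrations. GI50 = concentration required for 50% inhibition of growth. At the TGI there is no net growth.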

As for `c1ccc(-c2cn(-c3ccccc3)c(-c3ccccc3)n2)cc1`, the GI50 was 15.3 µM in the test on UACC-62 melanoma; 15.4 µM in the test on ACHN renal; 16.6 µM in the test on NCI-H23 lung; 4.08 µM in the test on U251 CNS; 2.75 µM in the test on CCRF-CEM leukemia; 2.31 µM in the test with RPMI-8226 leukemia. Also, the GI50 in the test on 786-0 renal was 2.3 µM; in the test on SK-OV-3 ovarian, 19.3 µM; with SK-MEL-2 melanoma, 13.9 µM; in the test on SN12C renal, 15.4 µM. Besides, the TGI came to 29.8 µM in the test on UACC-62 melanoma; 28.7 µM in the test on ACHN renal; 34.9 µM with NCI-H23 lung; 15.9 µM in the test with U251 CNS; 7.06 µM with CCRF-CEM leukemia; 5.47 µM in the test on RPMI-8226 leukemia. The TGI in the test on 786-0 renal was determined as 4.67 µM; in the test with SK-OV-3 ovarian it was 34 µM; in the test on SK-MEL-2 melanoma it was 27.2 µM; in the test on SN12C renal, 30.6 µM.
On to `CCOC(=O)[C@@H](C)C[C@H](Cc1ccccc1)NC(=O)c1csc([C@@H](C[C@H](C(C)C)N(C)C(=O)[C@@H](NC(=O)[C@H]2C[C@H](O)CCN2C)C(C)C)OC(C)=O)n1`, for which the GI50 is below 0.00167 µM with UACC-62 melanoma; 0.106 µM in the test on ACHN renal; 0.00763 µM in the test on NCI-H23 lung; 0.00614 µM in the test with U251 CNS; 0.00534 µM in the test on CCRF-CEM leukemia; below 0.00167 µM with RPMI-8226 leukemia. For the same compound, the GI50 is 0.0273 µM in the test with 786-0 renal, 0.00474 µM in the test with SK-OV-3 ovarian, 0.00243 µM with SK-MEL-2 melanoma and 0.00936 µM in the test on SN12C renal. Moreover, the TGI in the test with UACC-62 melanoma, with ACHN renal, in the test on NCI-H23 lung, in the test on U251 CNS, with CCRF-CEM leukemia and with RPMI-8226 leukemia was above 16.7 µM each time. Also, the TGI in the test with 786-0 renal, with SK-OV-3 ovarian, in the test on SK-MEL-2 melanoma and with SN12C renal was above 16.7 µM throughout.
With `O=C(O)c1ccc(C(=O)O)c(C(=O)O)c1.[NH-]C1CCCCC1[NH-].[Pt+2]`, the GI50 in the test on UACC-62 melanoma is 2.82 µM; in the test with ACHN renal, 1.96 µM; with NCI-H23 lung, 4.87 µM; in the test on U251 CNS, 8.84 µM; in the test with CCRF-CEM leukemia, 0.858 µM and 4.49 µM; in the test with RPMI-8226 leukemia, 0.581 µM. Besides, the GI50 in the test on 786-0 renal is 1.99 µM; with SK-OV-3 ovarian, 40.9 µM; in the test on SK-MEL-2 melanoma, 14.3 µM; in the test on SN12C renal, 3.19 µM. Also, the TGI in the test on UACC-62 melanoma came to 36 µM; with ACHN renal, 44.1 µM; in the test on NCI-H23 lung, 38.4 µM; with U251 CNS it was 59.1 µM; in the test on CCRF-CEM leukemia it was 66.8 µM; with RPMI-8226 leukemia it was 48.9 µM. In addition, the TGI in the test on 786-0 renal was above 74.7 µM; with SK-OV-3 ovarian it was above 97.3 µM; with SK-MEL-2 melanoma, 61.4 µM; in the test on SN12C renal, 66.8 µM.
Turning to `CC(=O)OCC1OC([Se-])C(OC(C)=O)C(OC(C)=O)C1OC(C)=O.N#CCC[PH+](CCC#N)CCC#N.[Au+]` (stereo not given), the GI50 in the test with UACC-62 melanoma is 5.12 µM; in the test with ACHN renal, 7.06 µM; with NCI-H23 lung, 4.55 µM; in the test on U251 CNS it was 10.9 µM; with CCRF-CEM leukemia, 3.46 µM; in the test with RPMI-8226 leukemia, 3.09 µM. Besides, the GI50 was 6.3 µM in the test on 786-0 renal, 37.1 µM in the test on SK-OV-3 ovarian, 11.8 µM in the test with SK-MEL-2 melanoma and 6.33 µM in the test with SN12C renal. In addition, the TGI in the test on UACC-62 melanoma is 30.6 µM; in the test with ACHN renal it was 39.4 µM; in the test on NCI-H23 lung, 23.1 µM; with U251 CNS, above 48.8 µM; with CCRF-CEM leukemia it was 27.3 µM; in the test with RPMI-8226 leukemia, 14.4 µM. For the same compound, the TGI in the test on 786-0 renal is 53.3 µM; with SK-OV-3 ovarian, above 94.6 µM; in the test with SK-MEL-2 melanoma, 48.4 µM; with SN12C renal, 31.9 µM.
For `Cc1cc(=O)oc2cc(OC(=O)Nc3ccccc3)ccc12`, the TGI with UACC-62 melanoma is above 100 µM; with ACHN renal, above 100 µM; with NCI-H23 lung, above 100 µM; with U251 CNS it was above 100 µM; in the test with CCRF-CEM leukemia, 74.2 µM; in the test on RPMI-8226 leukemia, 62.4 µM. Moreover, the TGI in the test on 786-0 renal, with SK-OV-3 ovarian, in the test with SK-MEL-2 melanoma and in the test with SN12C renal was above 100 µM each time.
`NC1=NC2=C(CCCC2)C(c2cccs2)S1` (stereo not given): the TGI in the test on UACC-62 melanoma, in the test with ACHN renal, in the test with NCI-H23 lung, with U251 CNS, in the test on CCRF-CEM leukemia and in the test on RPMI-8226 leukemia was above 100 µM each time. In addition, the TGI in the test on 786-0 renal, in the test with SK-OV-3 ovarian, in the test on SK-MEL-2 melanoma and with SN12C renal was above 100 µM in each case.
In the case of `Cc1cc2c(cc1C)[n+](=O)c(C(=O)CC(=O)C(=O)Nc1ccccc1C(C)C)c(C)n2[O-]`, the TGI with UACC-62 melanoma, in the test with ACHN renal, with NCI-H23 lung, in the test with U251 CNS, in the test with CCRF-CEM leukemia and in the test with RPMI-8226 leukemia was above 100 µM throughout. The TGI in the test on 786-0 renal, in the test with SK-OV-3 ovarian, in the test on SK-MEL-2 melanoma and with SN12C renal was above 100 µM in each case.
